Measured values reported in patent US20040071747A1, “Cosmetics” (priority 2001, published 2004).

Assay: Solubility in water or squalane by visual observation
Type: physicochemical
Parameters: key: ∘: Completely dissolved; x: Separated or precipitated without dissolution
Settings: 25° C.
Description: Solubilityies of 1% by weight of components (1) to (5), and those of 0.01% by weight of components (6) and (7) were examined by visual observation of the dissolving states of the components mixed at 25° C. with water or squalane.

Solubility in Squalane (0.01% by weight) | Solubility in Water (0.01% by weight) | Solubility in Squalane (1% by weight) | Solubility in Water (1% by weight) | Structure (SMILES)
x | ∘ | – | – | CCN(Cc1cccc(S(=O)(=O)[O-])c1)c1ccc(C(=C2C=CC(=[N+](CC)Cc3cccc(S(=O)(=O)[O-])c3)C=C2)c2ccccc2S(=O)(=O)[O-])cc1.[Na+].[Na+] [Blue No.1]
– | – | x | ∘ | CC1(C)[C@@H](O[C@H]2O[C@H](C(=O)[O-])[C@@H](O)[C@H](O)[C@H]2O[C@@H]2O[C@H](C(=O)[O-])[C@@H](O)[C@H](O)[C@H]2O)CC[C@]2(C)[C@H]3C(=O)C=C4[C@@H]5C[C@@](C)(C(=O)O)CC[C@]5(C)CC[C@@]4(C)[C@]3(C)CC[C@@H]12.[K+].[K+] [Dipotassium Glycyrrhizinate]
x | ∘ | – | – | Cc1ccc(Nc2ccc(O)c3c2C(=O)c2ccccc2C3=O)c(S(=O)(=O)[O-])c1.[Na+] [Purple No.401]
